Source: patent US7662973B2, “Fluorescent detection method and reagent” (GE Healthcare UK Limited, priority 2000, dated 2010)
Counter-ions that a name gives are not always drawn.

Columns and labels:
[1] = biological target: T1, Nitroreductase expressing cells (Escherichia coli, UniProt P38489); assay: Cellular nitroreductase activity in living cells with cell permeable substrates (plate reader); assay type: cell-based; settings: 37° C.
T1 construct: expressed in transfected cells
Method: Cy3Qee (Formula IIIa) and Cy5Qee (Formula IIIb) were evaluated as cell permeable fluorescence substrates for nitroreductase measurement in living cells. Nitroreductase expressing cells and control cells were cultured at 10,000 cells/well in 96 well plates in tissue culture medium containing 10% foetal calf serum and incubated at 37° C. in the presence of 10 μM Cy3Qee or 30 μM Cy5Qee.

[2] = biological target: T1, Nitroreductase expressing cells; assay: Cellular nitroreductase activity in living cells by flow cytometry; assay type: cell-based; settings: 30 μM Cy3Qee, 2 hours 37° C.; 488 nm laser excitation, 585/42 nm emission
Method: Nitroreductase expressing cells and control cells were incubated for 2 hours at 37° C. in tissue culture media containing 30 μM Cy3Qee. Following incubation cells were washed with phosphate buffered saline and trypsinised to produce cell suspensions for flow cytometry.
Cells were analysed using a FACScalibur flow cytometer (Becton Dickinson) using 488 nm laser excitation and a 585/42 nm emission filter. Results (FIG. 12) show a significant increase in fluorescence in nitroreductase expressing cells (mean fluorescence 169.9) compared with control cells (mean fluorescence 18.2).

SKOV cells lysate = assay: In vitro evaluation of cassette: ester linker cleavage by cell lysate; assay type: cell-based; settings: 20 minutes 37° C., PBS pH 7.4, 1 mM NADH; 450 nm excitation
Method: (§1) Cy5Q-Cascade blue cassette (0.8 mM in acetate buffer pH 5.0) was diluted to […] in PBS pH 7.4 containing 1 mM NADH. A cell lysate was prepared from 2×10^7 SKOV cells by re-suspension of scraped cells in 5 ml PBS at 4° C. and repeated passage through a 25 gauge syringe needle. Aliquots (1 ml) of Cy5Q-Cascade blue were incubated with 500 μl of cell lysate or PBS for 20 minutes at 37° C. Following incubation 100 μl of a 1 ng/μl solution of E. coli B nitroreductase was added to one sample and incubation continued for 5 minutes. Aliquots ([…]) were then dispensed in quadruplicate from each sample to a 96 well plate for measurement of fluorescence on a Cytofluor plate reader using 450 nm excitation/530 nm emission filters for cascade blue and 610 nm excitation/670 nm emission for Cy5.

E. coli B nitroreductase = E. coli B nitroreductase (Escherichia coli, UniProt P38489); assay: In vitro evaluation of cassette: reduction by nitroreductase; assay type: biochemical; settings: after lysate incubation, 5 minutes with nitroreductase; 610 nm excitation
Method: as §1

[3] = 10 μM Cy3Qee, 530/25 nm excitation, 580/50 nm emission
[4] = 30 μM Cy5Qee, 610/20 nm excitation, 670/40 nm emission

T1 sequence (P38489 whole entry): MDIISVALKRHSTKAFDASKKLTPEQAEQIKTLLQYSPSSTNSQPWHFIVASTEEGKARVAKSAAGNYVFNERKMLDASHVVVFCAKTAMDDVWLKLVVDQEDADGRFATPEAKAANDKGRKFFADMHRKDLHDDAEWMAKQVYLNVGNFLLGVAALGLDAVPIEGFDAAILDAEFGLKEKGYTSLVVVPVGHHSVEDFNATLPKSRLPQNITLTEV
E. coli B nitroreductase, sequence (P38489 whole entry): as above

CCOC(=O)Cc1ccc2c(c1)C(C)(C)C(/C=C/C=C1/N(C)c3ccc(CC(=O)OCC)cc3C1(C)C)=[N+]2Cc1cc([N+](=O)[O-])cc([N+](=O)[O-])c1 [Cy3Qee]
fluorescence in control cells [1, 3]: minimal changes in fluorescence | fluorescence in nitroreductase expressing cells [1, 3]: significant time dependent increase in fluorescence | mean fluorescence, control cells [2]: 18.2 | mean fluorescence, nitroreductase expressing cells [2]: 169.9

CC1(C)C(/C=C/C=C/C=C2/N(Cc3cc([N+](=O)[O-])cc([N+](=O)[O-])c3)c3ccc(S(=O)(=O)O)cc3C2(C)C)=[N+](CCCCCC(=O)Oc2cc(S(=O)(=O)O)c3ccc4c(S(=O)(=O)[O-])cc(S(=O)(=O)O)c5ccc2c3c45)c2ccc(S(=O)(=O)O)cc21 [Cy5Q-Cascade blue cassette]
fluorescence emission at 530 nm (Cascade Blue) in the presence of cell lysate (SKOV cells lysate): increase of fluorescence emission | fluorescence emission at 670 nm (Cy5) when nitroreductase enzyme is present (E. coli B nitroreductase): increase in fluorescence emission

CCOC(=O)Cc1ccc2c(c1)C(C)(C)C(/C=C/C=C/C=C1/N(C)c3ccc(CC(=O)OCC)cc3C1(C)C)=[N+]2Cc1cc([N+](=O)[O-])cc([N+](=O)[O-])c1 [Cy5Qee, 1-(3,5-dinitrobenzyl)-5-(2-ethoxy-2-oxoethyl)-2-{(1E,3E)-5-[6-(2-ethoxy-2-oxoethyl)-1,1,3-trimethyl-1,3-dihydro-2H-indol-2-ylidene]-1,3-pentadienyl}-3,3-dimethyl-3H-indoluim Salt]
fluorescence in control cells [1, 4]: minimal changes in fluorescence | fluorescence in nitroreductase expressing cells [1, 4]: significant time dependent increase in fluorescence
